Measurements reported in patent US20250340590A1, “PEPTIDE HAVING ANTI-INFLAMMATORY ACTIVITY AND USE THEREOF” (CAREGEN CO., LTD., priority 2021, published 2025).

What was measured:
IL-17 = IL-17 secretion by ELISA in TNFα-induced mouse splenocytes; type: cell-based; details: TNFα 20 nM, 24 hours
Protocol: (§1) Inflammation was induced by treating mouse splenocytes with the inflammatory cytokine TNFα, and the secretion amounts of the inflammatory cytokines IL-17, IL-1B, and IFNγ were confirmed. IL-17 corresponds to a pro-inflammatory cytokine, and the descriptions of IL-1β and IFNγ are the same as above.
(§2) Mouse splenocytes were dispensed into a 24-well plate at a concentration of 1×10^7 cells/well and cultured until the next day. The medium was replaced with serum-free medium, and after 4 hours, the cells were treated with TNFα and the peptide of the present invention and then cultured again for another 24 hours. In order to induce inflammation, the cells were treated with TNFα at 20 nM, and the peptide at 5 μM and 50 μM, respectively. The mouse splenocytes in the group in which inflammation was not induced due to untreatment with TNFα (NON); the negative control group in which the cells were treated with TNFα but not treated with the peptide (NC); and the group in which the cells were treated with TNFα along with the peptide of the present invention at the same concentration as above, respectively, were reacted as described above and the cell cultures were recovered. […]

IFNγ = IFNγ secretion by ELISA in TNFα-induced mouse splenocytes; type: cell-based; details: TNFα 20 nM, 24 hours
Protocol: as §1, §2

Cox2 = Cox2 protein level by Western blot in HaCaT cells induced with LPS, TGFβ and IL-23; type: cell-based, human; details: IL-23 and LPS, peptide at 5 μM and 50 μM, 24 hours, compared to group not treated with the peptide
Protocol: (§3) In order to further confirm the anti-inflammatory effect of the peptide treatment of the present invention in addition to the results of Experimental Example 1, HaCaT cells were treated with Th17 (type 17), which is an inflammation-inducing substance, and the expression levels of inflammation-inducing markers iNos and Cox2 were confirmed. As the inflammation-inducing substances, the cells were treated with LPS, TGFβ, and IL-23, and since iNos is an enzyme involved in the production of nitric oxide (NO), which is an inflammation-related protein induced by LPS, etc., it is possible to confirm whether inflammation is inhibited by measuring the expression levels of iNos and Cox2.
(§4) HaCaT cells were dispensed into a 24-well plate at a concentration of 3× 10^5 cells/well and cultured until the next day. The medium was replaced with serum-free medium, and after 4 hours, the cells were treated with TGFβ, IL-23, and LPS, which are Th17 type inflammation-inducing cytokines, and then with the peptide of the present invention and cultured again for another 24 hours. […] In order to perform Western blotting, the amounts of iNos and Cox2 proteins were measured using an anti-iNos antibody and an anti-Cox2 antibody (Cell Signaling Technology, USA). […]

IL-6 = IL-6 mRNA level by RT-PCR in LPS-induced mouse splenocytes; type: cell-based; details: LPS 2 μg/mL, peptide at 5 μM and 50 μM, 24 hours, compared to group not treated with the peptide
Protocol: Inflammation was induced in mouse splenocytes, and the expression levels of TNFα, and IL-6 genes, which is the inflammatory cytokines were confirmed. In order to induce inflammation, the cells were treated with LPS, an inflammation-inducing antigen, and since TNFα corresponds to a signaling protein associated with inflammation, and IL-6 corresponds to a cytokine that promotes inflammation, the degree of inflammation can be confirmed by measuring the expression levels of TNFα and IL-6 genes.
Mouse splenocytes were dispensed into a 24-well plate at a concentration of 1×10^7 cells/well and cultured until the next day. The medium was replaced with serum-free medium, and after 3 hours, the cells were treated with LPS and the peptide of the present invention and then cultured again for another 24 hours. In order to induce inflammation, the cells were treated with LPS at 2 μg/mL, and the peptide at […] and 50 μM, respectively. […] After quantifying the amount of isolated RNA, cDNA was synthesized using a cDNA synthesis kit (Intron, Korea), PCR was performed using a PCR premix (Intron, Korea) and primers for TNFα, and IL-6. […]

iNos = iNos protein level by Western blot in HaCaT cells induced with LPS, TGFβ and IL-23; type: cell-based, human; details: IL-23 and LPS, peptide at 5 μM and 50 μM, 24 hours, compared to group not treated with the peptide
Protocol: as §3, §4

## TWNS [peptide of the present invention]
IL-17; peptide at 5 μM
  secretion amount of IL-17: slightly increased
IL-17; peptide at 50 μM
  secretion amount of IL-17: decreased
IFNγ; peptide at 5 μM
  secretion amount of IFNγ: decreased
IFNγ; peptide at 50 μM
  secretion amount of IFNγ: decreased
Cox2
  expression level of Cox2 protein: decreased
IL-6
  mRNA expression level of IL-6: decreased
iNos
  expression level of iNos protein: decreased
